The values below come from patent publication US10287269B2, “Pyrazolyl pyrimidinone compounds as PDE2 inhibitors” (Merck Sharp & Dohme Corp., priority 2015, dated 2019).

The assay deals with T1, Rhesus PDE2A3 (Macaca mulatta, UniProt B3VTJ2).
T1 construct: made in house; host or cells: AD293 cells, transient transfection, pcDNA3.3-TOPO; lysate supernatant used as enzyme
T1 sequence (B3VTJ2 1-941): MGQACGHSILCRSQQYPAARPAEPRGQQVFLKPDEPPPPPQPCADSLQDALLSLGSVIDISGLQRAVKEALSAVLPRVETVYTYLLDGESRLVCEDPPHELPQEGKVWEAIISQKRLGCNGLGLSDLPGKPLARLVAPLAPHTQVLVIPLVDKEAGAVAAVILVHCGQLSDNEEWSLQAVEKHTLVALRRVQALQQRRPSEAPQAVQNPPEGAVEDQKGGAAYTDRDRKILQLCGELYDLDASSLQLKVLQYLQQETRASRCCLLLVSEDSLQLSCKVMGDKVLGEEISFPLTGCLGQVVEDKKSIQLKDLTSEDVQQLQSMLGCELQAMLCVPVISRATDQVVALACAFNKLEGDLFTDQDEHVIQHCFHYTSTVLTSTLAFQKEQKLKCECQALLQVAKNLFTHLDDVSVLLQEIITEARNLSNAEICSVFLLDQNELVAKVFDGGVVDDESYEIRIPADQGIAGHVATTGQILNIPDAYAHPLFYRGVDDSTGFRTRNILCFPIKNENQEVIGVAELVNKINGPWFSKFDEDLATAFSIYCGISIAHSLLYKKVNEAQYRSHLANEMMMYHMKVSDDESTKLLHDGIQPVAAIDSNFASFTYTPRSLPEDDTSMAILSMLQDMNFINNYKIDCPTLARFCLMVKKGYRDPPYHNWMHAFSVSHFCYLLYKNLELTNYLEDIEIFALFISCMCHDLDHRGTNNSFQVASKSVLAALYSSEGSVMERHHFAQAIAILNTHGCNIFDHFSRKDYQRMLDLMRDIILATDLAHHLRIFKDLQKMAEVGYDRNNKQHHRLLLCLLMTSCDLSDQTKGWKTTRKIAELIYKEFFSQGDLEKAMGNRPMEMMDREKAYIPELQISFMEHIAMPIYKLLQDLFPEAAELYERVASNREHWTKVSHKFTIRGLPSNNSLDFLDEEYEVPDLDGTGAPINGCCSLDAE
The experiment in a line: PDE2 fluorescence polarization (IMAP FP) inhibition assay, rhesus enzyme. The format is biochemical, rhesus macaque. The gist of the method:
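Lysate of AD293 cells transiently expressing rhesus PDE2A3, diluted for ~20% substrate conversion, with 50 nM FAM-cAMP and 1 uM cGMP activator in pH 7.2 Tris/MgCl2 buffer, 60 min at room temperature.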
Background: Fluorescence polarisation rises when a labelled molecule tumbles more slowly, as on binding a larger partner.

Setting [1] is: Lab A, read-out: Rhesus PDE2 Ki (nM) Lab A.
Where [2] appears, read: Lab B, read-out: Rhesus PDE2 Ki (nM) Lab B.

Like-named read-outs stand apart in the source and are kept apart here.

For `COc1ccc(Cc2nc(-c3cnn(C(C)c4ccc(S(F)(F)(F)(F)F)cc4)c3)cc(=O)[nH]2)cc1OC` (single isomer, unassigned) [Example 64, (R)- or (S)-2-(3,4-dimethoxybenzyl)-6-(1-(1-(4-(pentafluorosulfanyl)phenyl)ethyl)-1H-pyrazol-4-yl)pyrimidin-4(3H)-one], the inhibitory constant (Ki) (commonly the equilibrium dissociation constant of an inhibitor or competing ligand from its target) under setting [1] is 7.2 nM and the Ki under setting [2] was determined as 3.5 nM.

As to `COc1ccc(Cc2nc(-n3ccc(C(C)c4ccc(C(F)(F)F)cc4)n3)cc(=O)[nH]2)cc1OC` (single isomer, unassigned) [Example 133, (R)- or (S)-2-(3,4-dimethoxybenzyl)-6-(3-(1-(4-(trifluoromethyl)phenyl)ethyl)-1H-pyrazol-1-yl)pyrimidin-4(3H)-one], under setting [2], the Ki is 64.8 nM. Still for that read-out and setting: in the case of `COc1ccc(Cc2nc(-n3ccc(C(C)c4ccc(C(F)(F)F)cc4)n3)cc(=O)[nH]2)cc1OC` (single isomer, unassigned) [Example 134, (R)- or (S)-2-(3,4-dimethoxybenzyl)-6-(3-(1-(4-(trifluoromethyl)phenyl)ethyl)-1H-pyrazol-1-yl)pyrimidin-4(3H)-one] it was 110 nM; in that of `COc1ccc(Cc2nc(-c3cnn(C(C)c4ccc(C(F)(F)F)cc4F)c3)cc(=O)[nH]2)cc1OC` (single isomer, unassigned) [Example 66, (R)- or (S)-2-(3,4-dimethoxybenzyl)-6-(1-(1-(2-fluoro-4-(trifluoromethyl)phenyl)ethyl)-1H-pyrazol-4-yl)pyrimidin-4(3H)-one], 0.8 nM.

Take `CC(c1ccc(C(F)(F)F)cc1F)n1cc(-c2cc(=O)[nH]c(Cc3ccccc3)n2)cn1` (centres unmarked) [Example 35, 2-benzyl-6-(1-(1-(2-fluoro-4-(trifluoromethyl)phenyl)ethyl)-1H-pyrazol-4-yl)pyrimidin-4(3H)-one]: the inhibitory constant (Ki) by setting is: under setting [1], 38.3 nM; under setting [2], 17.3 nM. For `Cc1nc(-n2cc([C@]3(c4ccc(C(F)(F)F)cc4)CCCO3)cn2)cc(=O)[nH]1` (single isomer, unassigned) [Example 22], the Ki under setting [2] turned out to be 41.9 nM. With `Cc1nc(-c2cnn(C(C)c3ccc(C(F)(F)F)cc3F)c2)cc(=O)[nH]1` (single isomer, unassigned) [Example 136, (S)- or (R)-6-(1-(1-(2-fluoro-4-(trifluoromethyl)phenyl)ethyl)-1H-pyrazol-4-yl)-2-methylpyrimidin-4(3H)-one], the Ki is 18.3 nM under setting [1] and 11.1 nM under setting [2]. In the case of `Cc1nc(-n2cc([C@H](C)c3ccc(C(F)(F)F)cc3)cn2)cc(=O)[nH]1` (single isomer, unassigned) [Example 4], under setting [2], the inhibition constant Ki was found to be 29.5 nM. As for `COc1cccc(Cc2nc(-c3cnn(C(C)c4ccc(C(F)(F)F)cc4F)c3)cc(=O)[nH]2)c1` (single isomer, unassigned) [Example 141, (S)- or (R)-6-(1-(1-(2-fluoro-4-(trifluoromethyl)phenyl)ethyl)-1H-pyrazol-4-yl)-2-(3-methoxybenzyl)pyrimidin-4(3H)-one], the Ki reads like this: under setting [1], 25.6 nM; under setting [2], 8.7 nM. The like results for `CC(C)c1nc(-c2cnn(C(C)c3ccc(C(F)(F)F)cc3F)c2)cc(=O)[nH]1` (centres unmarked) [Example 9, 6-(1-(1-(2-Fluoro-4-(trifluoromethyl)phenyl)ethyl)-1H-pyrazol-4-yl)-2-isopropylpyrimidin-4(3H)-one] were, in that order, 58.8 nM and 30.7 nM. For `Cc1nc(-c2ccn(C(C)c3ccc(C(F)(F)F)cc3)n2)cc(=O)[nH]1` (single isomer, unassigned) [Example 77, (R)- or (S)-2-methyl-6-(1-(1-(4-(trifluoromethyl)phenyl)ethyl)-1H-pyrazol-3-yl)pyrimidin-4(3H)-one], under setting [2], the inhibition constant Ki came to 542 nM. Still for that read-out and setting: in the case of `Cc1nc(-n2cc(C3(C)OCc4cc(C(F)(F)F)ccc43)cn2)cc(=O)[nH]1` (single isomer, unassigned) [Example 27] it was 98 nM.
